Measured values from the NIST ThermoML archive (doi:10.1021/je101156d).

Test: mn = molality of the nth substance listed, in mol/kg
Details: 101.3 kPa, Liquid, Dip Cell

CC(CN1c2ccccc2Sc2ccccc21)N(C)C.Cl (stereo not given) [promethazine hydrochloride] + O
electrical conductivity [S/m]
Details | 293.15 K | 303.15 K | 313.15 K | 323.15 K
m1 = 0.00484 | 0.029 | 0.039 | 0.05 | 0.063
m1 = 0.00938 | 0.065 | 0.075 | 0.092 | 0.105
m1 = 0.0136 | 0.099 | 0.109 | 0.131 | 0.144
m1 = 0.0176 | 0.13 | 0.14 | 0.167 | 0.18
m1 = 0.0214 | 0.159 | 0.169 | 0.199 | 0.212
m1 = 0.025 | 0.184 | 0.194 | 0.229 | 0.242
m1 = 0.0284 | 0.208 | 0.218 | 0.257 | 0.27
m1 = 0.0316 | 0.23 | 0.24 | 0.285 | 0.298
m1 = 0.0346 | 0.251 | 0.261 | 0.309 | 0.322
m1 = 0.0375 | 0.271 | 0.281 | 0.332 | 0.345
m1 = 0.0402 | 0.289 | 0.299 | 0.353 | 0.366
m1 = 0.0429 | 0.307 | 0.317 | 0.376 | 0.389
m1 = 0.0453 | 0.327 | 0.337 | 0.395 | 0.408
m1 = 0.0477 | 0.336 | 0.346 | 0.413 | 0.426
m1 = 0.05 | 0.347 | 0.357 | 0.428 | 0.447
m1 = 0.0522 | 0.358 | 0.368 | 0.44 | 0.457
m1 = 0.0543 | 0.369 | 0.379 | 0.45 | 0.467
m1 = 0.0563 | 0.38 | 0.39 | 0.46 | 0.477
m1 = 0.0582 | 0.391 | 0.401 | 0.47 | 0.487
m1 = 0.06 | 0.402 | 0.412 | 0.48 | 0.497
m1 = 0.0618 | 0.41 | 0.42 | 0.488 | 0.505
m1 = 0.0635 | 0.417 | 0.427 | 0.496 | 0.513
m1 = 0.0651 | 0.424 | 0.434 | 0.504 | 0.52
m1 = 0.0667 | 0.431 | 0.441 | 0.512 | 0.527
m1 = 0.0682 | 0.438 | 0.448 | 0.52 | 0.534
m1 = 0.0696 | 0.445 | 0.455 | 0.528 | 0.54
m1 = 0.0711 | 0.452 | 0.462 | 0.536 | 0.546
m1 = 0.0724 | 0.459 | 0.469 | 0.542 | 0.552
m1 = 0.0737 | 0.466 | 0.476 | 0.548 | 0.557
m1 = 0.075 | 0.473 | 0.483 | 0.554 | 0.562
